# Key:
# [1] = high concentrations required for clinical application, neutral to basic pH range; cited from earlier work
# [2] = Phase II clinical study: pharmacokinetic assessment of systemic plasma and urine levels; settings: ALA-treated patients, compared with naturally occurring physiological values in the same individuals
# [3] = 25° C.; cited from earlier work
plasma concentrations of ALA and its metabolite protoporphyrin IX [2],urine concentrations of ALA and its metabolite protoporphyrin IX [2],Compound,stability in aqueous solutions [1],viscosity [3] [cp]
not increased,not increased,"NCC(=O)CCC(=O)O [ALA, 5-aminolevulinic acid]",unstable,–
–,–,CC(C)O [isopropanol],–,2.32
–,–,CCO [ethanol],–,1.10

# Source: patent publication US11540981B2, “Nanoemulsion formulation with improved stability and cell penetration” (BIOFRONTERA BIOSCIENCE GMBH, priority 2006, dated 2023)
